# Results from paper PMC11277992, “New Zosteropenillines and Pallidopenillines from the Seagrass-Derived Fungus Penicillium yezoense KMM 4679” (Marine Drugs, 2024).
# How the values were obtained:
# Candida albicans KMM 455 = assay: Antimicrobial activity, microbial growth in broth (OD620); type: cell-based; conditions: for inhibition of growth at 100 µM: Candida albicans, KMM455, compound at 100 µM, read-out: Inhibition of Microbial Growth, % of Control, C. albicans
# Protocol: (§1) The yeast-like fungus Candida albicans KMM 455 and bacterial strains Staphylococcus aureus ATCC 21027 and Escherichia coli VKPM (B-7935) (Collection of Marine Microorganisms PIBOC FEB RAS) were cultured on solid-medium Mueller–Hinton broth with agar (16.0 g/L) in a Petri dish at 37 °C for 24 h. The assays were performed in 96-well microplates in an appropriate Mueller–Hinton broth. Each well contained 90 µL of a bacterial or yeast-like fungal suspension (10^6 CFU/mL). Then, 10 µL was added of a compound diluted at concentrations from 1.5 µM to 100.0 µM using twofold dilution (DMSO concentration < 1%). Culture plates were incubated overnight at 37 °C, and the OD620 was measured using a Multiskan FC spectrophotometer (Thermo Scientific Inc., Beverly, MA, USA). The antibiotic gentamicin and antifungal agent nitrofungin were used as positive controls at 1 mg/mL; 1% DMSO in PBS served as a negative control. Examination was performed twice and in triplicate. The results were calculated as a percentage of the control data using SigmaPlot 14.0 software.
# [1] = system: Escherichia coli VKPM (B-7935); assay: as above; type: cell-based; conditions: read-out: Inhibition of Microbial Growth, % of Control, E. coli; for inhibition of growth at 100 µM: compound at 100 µM
# Protocol: as §1
# [2] = system: Staphylococcus aureus ATCC 21027; assay: as above; type: cell-based; conditions: read-out: Inhibition of Microbial Growth, % of Control, S. aureus; for inhibition of growth at 100 µM: ATCC21027, compound at 100 µM
# Protocol: as §1
# [3] = system: normal human kidney cells; assay: Cytotoxic activity (MTT assay); type: cell-based; conditions: 100 µM, 24 h
# Protocol: (§2) The influence of compounds 1, 2 and 4–14 on the viability of normal human kidney […] cells, as well as human prostate PC-3, cervical HeLa and breast MCF-7 cancer cells, was measured using the MTT assay after 24 h of treatment.
# (§3) The human prostate cancer cells PC-3 and CRL-1435 and the human embryonic kidney cells HEK-293 and CRL-1573TM were purchased from the American Type Culture Collection (ATCC; Manassas, VA, USA). PC-3 and HEK-293 cells were cultured in DMEM medium containing 10% fetal bovine serum (Biolot, St. Petersburg, Russia) and 1% penicillin/streptomycin (Biolot, St. Petersburg, Russia) at 37 °C in a humidified atmosphere with 5% (v/v) CO2. The cells were incubated in cultural flasks until sub-confluent (~80%).
# (§4) PC-3 cells (5 × 10^3 cells/well) and HEK 293 cells (8 × 10^3 cells/well) were seeded in a 96-well plate and incubated overnight. Then, compounds were added at concentrations of 1–100 μM and incubated for another 24 h. Cell viability was then determined by the MTT (3-(4,5-dimethylthiazol-2-yl)-2,5-diphenyltetrazolium bromide) method according to the manufacturer’s instructions (Sigma-Aldrich, St. Louis, MO, USA). The absorbance of the converted formazan was measured using a Multiskan FC microplate photometer (Thermo Scientific, Waltham, MA, USA) at λ = 570 nm. The results are presented as percentages of the control data.
# [4] = system: human prostate PC-3 cancer cells; assay: Cytotoxic activity (MTT assay); type: cell-based; conditions: 100 µM, 24 h, MTT
# Protocol: as §3
# as §4, with “Then, compounds were added at concentrations of 1–100 μM and incubated for another 24 h.” left out
# [5] = system: cervical HeLa cancer cells; assay: Cytotoxic activity (MTT assay); type: cell-based, human; conditions: 24 h; for Cell Viability, % of Control, HeLa: 100 µM, MTT; for IC50: Homo sapiens, HeLa, read-out: IC50, HeLa cell viability
# [6] = system: breast MCF-7 cancer cells; assay: Cytotoxic activity (MTT assay); type: cell-based, human; conditions: 100 µM, 24 h, MTT
# Protocol: as §2
# as §4, with “Then, compounds were added at concentrations of 1–100 μM and incubated for another 24 h.” left out
# [7] = system: CoCl2-treated HEK-293 cells; assay: Lipid peroxidation level (MitoCLox) in CoCl2-treated cells; type: cell-based, human; conditions: MitoCLox fluorescence dye
# Protocol: The fluorescence probe MitoCLox (Lumiprobe, Moscow, Russia) was used for the detection of the lipid peroxidation level in CoCl2-treated cells. It was added in the cells for 1 h at a concentration of 200 nM. After 1 h, the cells were washed with PBS and fluorescence was measured in ratiometric mode with λem = 520/590 nm using a PHERAStar FS plate reader (BMG Labtech, Offenburg, Germany). The data were processed with MARS Data Analysis v. 3.01R2 (BMG Labtech, Offenburg, Germany) and calculated as a 520/590 ratio.
# [8] = system: autophagy-related cargo protein p62; design: method as in PMID 28218691; conditions: PC-3 cells; cited from earlier work
# MCF-7 cells = assay: Drug combination study with doxorubicin (MTT); type: cell-based, human; conditions: 24 h
SMILES,inhibition of growth at 100 µM (Candida albicans KMM 455) [%],inhibition of growth at 100 µM [1] [%],inhibition of growth at 100 µM [2] [%],"Cell Viability, % of Control, HEK-298 [3]","Cell Viability, % of Control, PC-3 [4]","Cell Viability, % of Control, HeLa [5]","Cell Viability, % of Control, MCF-7 [6]",lipid peroxide levels in CoCl2-treated HEK-293 cells [7],IC50 [5] [µM],effect on autophagy-related cargo protein p62 [8],inhibition of growth at 1000 µg/mL ([1]; positive control at 1 mg/mL) [%],"inhibition of growth at 1000 µg/mL ([2]; ATCC21027, positive control at 1 mg/mL) [%]",decrease of MCF-7 cell viability (MCF-7 cells; doxorubicin alone at 0.1 µM) [%],decrease of MCF-7 cell viability (MCF-7 cells; doxorubicin alone at 1 µM),"Inhibition of Microbial Growth, % of Control, C. albicans (Candida albicans KMM 455; positive control at 1 mg/mL)"
"CC1=C[C@H](O)[C@H]2C[C@@H](C)CC[C@@H]2[C@H]1C(=O)CCO [Compound 1, zosteropenilline M]",8.32 ± 0.62,0,30.1 ± 2.42,95.16 ± 4.01 % of Control,89.25 ± 0.44 % of Control,66.49 ± 6.19 % of Control,86.42 ± 1.76 % of Control,significantly decreased,–,–,–,–,–,–,–
"CC1=CC(O)C2CC(C)(O)CCC2C1C(=O)CCO (stereo not drawn) [Compound 2, 11-epi-8-hydroxyzosteropenilline M]",6.12 ± 1.89,0,0,90.98 ± 2.82 % of Control,90.98 ± 2.82 % of Control,44.12 ± 5.13 % of Control,57.46 ± 1.82 % of Control,–,87.3,–,–,–,–,–,–
"CC1(O)CCC2C(C=CC(C)(O)C2C(=O)CCO)C1 (stereo not shown) [Compound 4, 8-hydroxyzosteropenilline G]",11 ± 2.31,0,0,94.71 ± 1.53 % of Control,94.71 ± 1.53 % of Control,81.80 ± 6.76 % of Control,81.92 ± 3.92 % of Control,–,–,–,–,–,–,–,–
"CC(=O)[C@@H]1[C@H]2CC[C@@](C)(O)C[C@@H]2C=C[C@@]1(C)O [Compound 5, zosteropenilline O]",35.3 ± 1.16,0,0,85.64 ± 1.85 % of Control,91.20 ± 3.37 % of Control,37.12 ± 3.85 % of Control,77.40 ± 2.73 % of Control,significantly decreased,82.5,–,–,–,–,–,–
"CC(=O)[C@@H]1[C@H]2CC[C@H](CO)C[C@@H]2C=C[C@@]1(C)O [Compound 6, zosteropenilline P]",17.3 ± 2.55,0,29 ± 1.66,83.26 ± 3.78 % of Control,83.15 ± 1.72 % of Control,71.44 ± 3.99 % of Control,82.05 ± 1.31 % of Control,–,–,–,–,–,–,–,–
"CC(=O)C1C2CCC(C)C(O)C2C=CC1(C)O (stereo not shown) [Compound 7, zosteropenilline Q]",19.2 ± 3.12,0,29.9 ± 4.5,80.00 ± 0.99 % of Control,88.70 ± 1.10 % of Control,80.80 ± 3.25 % of Control,76.23 ± 4.53 % of Control,–,–,–,–,–,–,–,–
"C[C@H]1C=C[C@H]2[C@H](O)[C@@H](C)CC[C@@H]2[C@H]1C(=O)CCO [Compound 8, 13-dehydroxypallidopenilline A]",0,0,19.9 ± 1.82,86.10 ± 2.24 % of Control,83.60 ± 1.81 % of Control,72.66 ± 2.49 % of Control,81.21 ± 5.56 % of Control,–,–,–,–,–,–,–,–
"C[C@H]1CC[C@H]2C(=C[C@@H](O)[C@@](C)(O)[C@@H]2C(=O)CCO)C1 [Compound 9, zosteropenilline R]",12 ± 1.14,0,11.7 ± 1.71,96.45 ± 7.64 % of Control,96.44 ± 7.63 % of Control,79.14 ± 6.36 % of Control,79.64 ± 1.67 % of Control,significantly decreased,–,–,–,–,–,–,–
"CC1CCC2C(C1)C(Cl)C(O)C(C)(O)C2C(=O)CCO (stereo not shown) [Compound 10, zosteropenilline S]",0,0,15.7 ± 0.36,98.10 ± 1.15 % of Control,85.98 ± 2.13 % of Control,68.69 ± 6.21 % of Control,84.85 ± 4.90 % of Control,–,–,–,–,–,–,–,–
"C[C@H]1CC[C@@H]2[C@@H](C(=O)CCO)[C@](C)(O)C=C[C@H]2C1 [Compound 11, zosteropenilline G]",18.1 ± 2.58,0,16.9 ± 4.12,93.97 ± 2.36 % of Control,93.97 ± 2.36 % of Control,34.35 ± 1.90 % of Control,81.00 ± 2.38 % of Control,–,79.7,upregulators,–,–,–,–,–
"C[C@H]1CC[C@H]2[C@@H](C=C[C@@](C)(O)[C@@H]2C(=O)CCO)[C@@H]1O [Compound 13, pallidopenilline A]",0,0,15.5 ± 1.35,89.76 ± 3.31 % of Control,89.76 ± 3.31 % of Control,71.85 ± 3.02 % of Control,95.05 ± 1.51 % of Control,–,–,–,–,–,–,–,–
"CNC(C)C1CCC(N)C(OC2C(N)CC(N)C(OC3OCC(C)(O)C(NC)C3O)C2O)O1 (stereo not shown) [Gentamicin, gentamicin, reference compound]",–,–,–,–,–,–,–,–,–,–,97.6 ± 2.1,98.6 ± 1.15,–,–,–
"COc1cccc2c1C(=O)c1c(O)c3c(c(O)c1C2=O)C[C@@](O)(C(=O)CO)C[C@@H]3O[C@H]1C[C@H](N)[C@H](O)[C@H](C)O1 [doxorubicin, reference compound]",–,–,–,–,–,–,–,–,–,–,–,–,30,approximately 60%,–
"O=[N+]([O-])c1ccc(O)c(Cl)c1 [nitrofungin, reference compound]",–,–,–,–,–,–,–,–,–,–,–,–,–,–,98.13 ± 0.69 % of Control
C[C@H]1CC[C@H]2[C@@H](C=C[C@]3(C)OCCC(=O)[C@H]23)[C@@H]1O [zosteropenilline A],–,–,–,–,–,–,–,–,–,upregulators,–,–,–,–,–
C[C@@]1(O)CC[C@@H]2[C@H]3C(=O)CCO[C@@]3(C)C=C[C@H]2C1 [zosteropenilline C],–,–,–,–,–,–,–,–,–,upregulators,–,–,–,–,–
